According to US20250099420A1, “SMALL MOLECULE MODULATORS OF GPR139 COMPLEX” (University of Florida Research Foundation, Incorporated, priority 2022, published 2025):
Read-outs that look alike come from different tables or passages of the source.

What was measured:
GPR139 = target: T1, GPR139 (Homo sapiens, UniProt Q6DWJ6); assay: GPR139 Agonist titration / agonist counterscreen assay (calcium detection, HEK-GPR139 cells); assay type: cell-based; set-up: expressed in transfected cells; host or cells: HEK Aequorin cells, Maxcyte transient transfection; settings: GPR139 Agonist Activity; for Averaged Max % Response (±St. Dev.): activity relative to known control; for EC50: read-out: EC50
T1 sequence (Q6DWJ6 1-353): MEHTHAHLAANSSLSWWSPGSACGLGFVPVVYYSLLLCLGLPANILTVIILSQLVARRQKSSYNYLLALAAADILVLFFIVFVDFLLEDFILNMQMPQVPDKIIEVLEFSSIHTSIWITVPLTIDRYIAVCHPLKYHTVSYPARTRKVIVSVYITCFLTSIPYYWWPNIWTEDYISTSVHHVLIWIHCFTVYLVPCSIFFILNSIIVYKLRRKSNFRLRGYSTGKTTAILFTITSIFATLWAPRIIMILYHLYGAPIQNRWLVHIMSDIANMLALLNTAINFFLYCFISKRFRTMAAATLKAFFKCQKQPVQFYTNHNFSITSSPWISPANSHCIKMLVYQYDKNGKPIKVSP
Experimental: GPR activity was assessed using a calcium detection assay. […] Negative control samples were treated with DMSO. […] Intracellular calcium was measured using Calcium 5.

parental HEK cells = assay: HEK parental Agonist Counterscreen Assay (non-transfected cells); assay type: cell-based; settings: for Averaged Max % Response (±St. Dev.): activity relative to known control
Source text: The high control for the agonist counterscreen was Forskolin not acetylcholine.

[1] = Homo sapiens, HEK293, HEK Agonist Activity section of Table 4 (parental HEK counterscreen)
[2] = HEK Agonist Activity section of Table 4 (parental HEK counterscreen)
[3] = values printed in E-notation without unit

Row | Compound | Averaged Max % Response (±St. Dev.) (GPR139) | Lipophilic Efficiency (logD) (GPR139; based on logD) | Lipophilic Efficiency (logP) (GPR139; based on logP) | Hill Slope (GPR139; fitted dose-response curve) | Efficiency Ligand (GPR139; ligand efficiency) | Lipophilic Efficiency (logD) (parental HEK cells; HEK Agonist Activity section) | Lipophilic Efficiency (logP) (parental HEK cells; HEK Agonist Activity section) | Averaged Max % Response (±St. Dev.) (parental HEK cells; HEK Agonist Activity section) | EC50 (parental HEK cells; [1]) | Efficiency Ligand (GPR139) | Hill Slope (GPR139) | Lipophilic Efficiency (logD) (GPR139) | Lipophilic Efficiency (logP) (GPR139) | EC50 (GPR139; HEK-GPR139 cells) | EC50 (parental HEK cells; [2]) | EC50 (GPR139; [3]) | Lipophilic Efficiency (logD) (parental HEK cells; HEK Agonist Activity) | Lipophilic Efficiency (logP) (parental HEK cells; HEK Agonist Activity) | Averaged Max % Response (±St. Dev.) (parental HEK cells; HEK Agonist Activity) | EC50 (parental HEK cells; Homo sapiens, HEK293, HEK Agonist Activity, parental non-transfected HEK cells)
1 | C=C1C(CC(=C)C2Cc3ccc4ccccc4c3C2)=CC(c2ccccc2)=CC1C (stereo not shown) [SR-00000002785] | 80.59 ± 9.85% | 4.66 | 4.66 | 0.95 | 0.32 | 2.62 | 2.62 | −10.50 ± 3.98% | > 14100 nM |  |  |  |  |  |  |  |  |  |  | 
2 | N[C@H](Cc1ccccc1Cl)c1nc2ccc(-c3ccncc3)cc2[nH]1.O=C(O)C(F)(F)F.O=C(O)C(F)(F)F [SR-00000003277] | 97.54 ± 11.30% |  |  |  |  | 2.04 | 1.13 | 29.67 ± 5.05% |  | 0.34 | 1.48 | 3.23 | 2.32 | 928 nM | > 14100 nM |  |  |  |  | 
3 | CN(C)CCOc1cc(-c2cn[nH]c2)ccc1NC(=O)C1COc2ccc(F)cc2C1.O=C(O)C(F)(F)F.O=C(O)C(F)(F)F (stereo not shown) [SR-00000004118] | 94.30 ± 8.24% |  |  | 1.08 |  |  |  | 13.55 ± 13.03% |  |  |  |  |  |  | > 14100 nM |  |  |  |  | 
4 | CN(C)CCOc1cc(NC(=O)C2COc3ccccc3C2)ccc1-c1cn[nH]c1.O=C(O)C(F)(F)F.O=C(O)C(F)(F)F (stereo not shown) [SR-00000004123] | 79.85 ± 11.38% |  |  |  |  | 3.26 | 1.93 | 3.68 ± 4.29% |  | 0.28 | 0.37 | 4.48 | 3.15 | 847 nM | > 14100 nM |  |  |  |  | 
5 | Cl.Cl.Nc1[nH]ncc1-c1ccc(NC(=O)[C@H](N)Cc2cccc(F)c2)cc1 [SR-00000004378] | 72.99 ± 14.39% |  |  |  |  | 3.65 | 2.98 | −19.97 ± 10.80% |  | 0.34 | 0.72 | 4.84 | 4.17 | 914 nM | > 14100 nM |  |  |  |  | 
6 | CCCCCc1cc(C2=CCC=C2)ccc1CC(=O)C1CCc2ccccc2C1 (stereo not shown) [SR-00000004451] | 92.93 ± 0.53% | 6.38 | 4.33 | 0.70 | 0.33 | 4.36 | 2.31 | 3.04 ± 3.40% | > 14100 nM |  |  |  |  |  |  |  |  |  |  | 
7 | O=C(Nc1ccc(-c2c[nH]cn2)cc1)C1COc2ccc(F)cc2C1 (stereo not shown) [SR-00000004710] | 89.55 ± 3.66% |  |  |  |  | 1.65 | 1.64 | −8.04 ± 14.30% | > 14100 nM | 0.35 | 0.90 | 3.12 | 3.11 | 477 nM |  |  |  |  |  | 
8 | COc1cccc(CNC(=O)Nc2ccc(-c3cn[nH]c3)cc2)c1 [SR-00000005253] | 80.15 ± 4.78% | 4.08 | 4.08 | 0.64 | 0.39 | 2.23 | 2.23 | −10.69 ± 5.73% | > 14100 nM |  |  |  |  |  |  | 202 nM |  |  |  | 
9 | Cc1cccc(CNC(=O)Nc2ccc(-c3cn[nH]c3)cc2)c1.O=C(O)C(F)(F)F [SR-00000005301] | 86.84 ± 8.43% |  |  |  |  | 1.56 | 1.56 | 8.29 ± 4.70% |  | 0.40 | 0.94 | 3.26 | 3.26 | 281 nM | > 14100 nM |  |  |  |  | 
10 | COc1ccc(CNC(=O)Nc2ccc(-c3cn[nH]c3)cc2)cc1.O=C(O)C(F)(F)F [SR-00000005347] | 110.92 ± 4.82% | 4.10 | 4.10 | 0.58 | 0.39 | 2.23 | 2.23 | 11.55 ± 3.19% |  |  |  |  |  |  | > 14100 nM | 189 nM |  |  |  | 
11 | O=C(Nc1ccc(-c2cn[nH]c2)cc1OCCN1CCCC1)C1COc2ccc(F)cc2C1.O=C(O)C(F)(F)F.O=C(O)C(F)(F)F (stereo not shown) [SR-00000005389] | 116.35 ± 10.47% | 4.67 | 3.26 | 0.77 | 0.29 | 2.79 | 1.38 | 31.02 ± 4.14% |  |  |  |  |  |  | > 14100 nM | 186 nM |  |  |  | 
12 | Cc1[nH]ncc1-c1ccc(NC(=O)C2COc3ccc(F)cc3C2)c(OCCN2CCOCC2)c1.O=C(O)C(F)(F)F.O=C(O)C(F)(F)F (stereo not shown) [SR-00000005393] | 87.23 ± 6.46% |  |  |  |  | 1.92 | 1.87 | 10.82 ± 8.56% |  | 0.25 | 0.94 | 3.27 | 3.22 | 629 nM | > 14100 nM |  |  |  |  | 
13 | COC(=O)c1ccc(CNC(=O)Nc2ccc(-c3cn[nH]c3)cc2)cc1.O=C(O)C(F)(F)F [SR-00000005410] | 99.92 ± 5.04% |  |  |  |  | 2.07 | 2.07 | 7.35 ± 2.40% |  | 0.31 | 1.14 | 2.93 | 2.93 | 1900 nM | > 14100 nM |  |  |  |  | 
14 | COc1ccc(CCC(=O)Nc2ccc(-c3cn[nH]c3)c(OC)c2)cc1 [SR-00000005955] | 95.13 ± 3.75% | 4.08 | 4.08 | 1.31 | 0.39 | 1.73 | 1.73 | 18.59 ± 8.23% | > 14100 nM |  |  |  |  |  |  | 62 nM |  |  |  | 
15 | CN1CCC(Oc2cc(-c3cn[nH]c3)ccc2NC(=O)C2COc3ccc(F)cc3C2)C1 (stereo not shown) [SR-00000006339] | 103.42 ± 7.86% | 6.10 | 5.03 | 0.54 | 0.35 |  |  |  |  |  |  |  |  |  |  | 9 nM | 2.91 | 1.83 | 5.16 ± 8.02% | > 14100 nM
